In data set [1] the target is T1, human MDR1 transfected MDCK cells (Homo sapiens, UniProt P08183).
T1 construct: host or cells: MDCK cells
Description: MDR1-MDCK assay (efflux ratio). The class given is in vitro ADME. The note with it: 1 μM compound, 120 minutes incubation. The method in brief:
(§1)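 Human MDR1-transfected MDCK monolayers, cultured 7 days on transwell inserts with TEER checked, were dosed with compound at 1 μM in HBSS-HEPES. Transport was measured in both A-B and B-A directions. Efflux ratio came from the directional permeabilities, with mass balance also calculated.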

Data set [2] has as its target T2, IRAK4 (Homo sapiens, UniProt Q9NWZ3).
T2 construct: with 0.1 nM IRAK4, 1.6 μM of biotinylated peptide substrate and 10 μM ATP
T2 sequence (Q9NWZ3 1-460): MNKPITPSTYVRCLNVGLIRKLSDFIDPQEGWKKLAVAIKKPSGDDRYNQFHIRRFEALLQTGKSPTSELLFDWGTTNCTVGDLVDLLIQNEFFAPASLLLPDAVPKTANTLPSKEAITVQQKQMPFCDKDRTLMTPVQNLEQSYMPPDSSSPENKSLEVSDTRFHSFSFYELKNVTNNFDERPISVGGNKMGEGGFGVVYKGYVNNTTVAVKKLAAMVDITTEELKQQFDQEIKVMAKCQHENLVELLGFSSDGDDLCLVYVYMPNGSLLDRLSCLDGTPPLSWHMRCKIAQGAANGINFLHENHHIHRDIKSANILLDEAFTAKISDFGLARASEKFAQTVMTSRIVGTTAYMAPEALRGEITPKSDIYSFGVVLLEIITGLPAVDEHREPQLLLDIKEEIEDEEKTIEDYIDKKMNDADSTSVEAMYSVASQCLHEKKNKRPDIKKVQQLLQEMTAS
The experiment in a line: IRAK4 MSD Biochemical Assay (1 mM ATP, 2 h). The settings on record: room temperature, read-out: IRAK4 MSD Biochemical Assay (1 mM ATP, 2 h) IC50. In short, it runs like this: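 Run with 1 mM ATP and […] for 2 h, then quenched with EDTA, pH 8. The phosphorylated biotinylated peptide was captured on streptavidin plates and detected with anti-phospho-threonine antibody plus Sulfo-Tag secondary by MSD electrochemiluminescence.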

Data set [3] deals with T3, MDR1 (P-gp) (Homo sapiens, UniProt P08183).
T3 construct: host or cells: MDCK cells
The experiment in a line: MDR1-MDCK assay (efflux ratio). The class given is in vitro ADME. The settings on record: human, MDCK-MDR1, 1 μM compound, 120 minutes incubation; read-out: MDR1-MDCK Efflux Ratio; (B-A/A-B). The method in brief: as §1

Data set [4] addresses T2, IRAK4. The experiment in a line: IRAK4 MSD Biochemical Assay (10 μM ATP, 2 h). The settings on record: 0.1 nM IRAK4, 2 h, room temperature. Here is the method: The 2-hour 10 μM ATP Biochemical Assay employs a MesoScale Detection (MSD) format. The kinase reaction is based on the IRAK4 phosphorylation of a biotin labeled peptide (IRAK1 activation loop sequence 360-389).
The kinase reaction in 30 μl is carried out in wells of a 384 well polypropylene assay plate, with 0.1 nM IRAK4, 1.6 μM of biotinylated peptide substrate and 10 μM ATP in 50 mM Hepes, pH 7.5, 60 mM NaCl, 5 mM MgCl2, 0.25 mM MnCl2, 2 mM DTT, 0.01% BSA, 0.01% BSA, and 1% DMSO (from compound DMSO stocks), for 2 hour at room temperature. The activity is quenched with 11 μl of 70 mM EDTA, pH 8.
To detect the phosphorylated biotinylated peptide substrate, 30 μl of the quenched reaction mixture is added to equivalent wells of a 384 well streptavidin coated MesoScale plate (Meso Scale Discovery #L21SA-1). After a 1 hour incubation of the plate for 1 hour at room temperature with gentle mixing, the plate wells are washed 3 times with 50 mM Tris, pH 7.5, 150 mM NaCl, 0.02% Tween-20.
A 25 μl volume of 1:500 anti-P-Threonine Rabbit polyclonal Antibody plus 1:500 Goat-anti-Rabbit Sulfo Tag Antibody (Meso Scale Discovery R32AB-1) in 50 mM Tris, pH 7.5, 150 mM NaCl, 0.02% Tween-20 plus 2% BSA is then added to each well. After a 1-hour incubation of the plate for 1 hour at room temperature with gentle mixing, the plate wells are washed, 3 times with 50 mM Tris, pH 7.5, 150 mM NaCl, 0.02% Tween-20. A 40 μl volume of 2×MSD Read Buffer (Meso Scale Discovery R92TC-1) is added to each well, and the plate is read immediately in an MSD Plate Reader (Meso Scale Discovery).

From US20230002361A1, “2H-INDAZOLE DERIVATIVES AND THEIR USE IN THE TREATMENT OF DISEASE” (BIOGEN MA INC., priority 2019, published 2023) come the findings set out here.

Broadly, the IC50 is the concentration that gives 50% inhibition.

T3 sequence (P08183 whole entry): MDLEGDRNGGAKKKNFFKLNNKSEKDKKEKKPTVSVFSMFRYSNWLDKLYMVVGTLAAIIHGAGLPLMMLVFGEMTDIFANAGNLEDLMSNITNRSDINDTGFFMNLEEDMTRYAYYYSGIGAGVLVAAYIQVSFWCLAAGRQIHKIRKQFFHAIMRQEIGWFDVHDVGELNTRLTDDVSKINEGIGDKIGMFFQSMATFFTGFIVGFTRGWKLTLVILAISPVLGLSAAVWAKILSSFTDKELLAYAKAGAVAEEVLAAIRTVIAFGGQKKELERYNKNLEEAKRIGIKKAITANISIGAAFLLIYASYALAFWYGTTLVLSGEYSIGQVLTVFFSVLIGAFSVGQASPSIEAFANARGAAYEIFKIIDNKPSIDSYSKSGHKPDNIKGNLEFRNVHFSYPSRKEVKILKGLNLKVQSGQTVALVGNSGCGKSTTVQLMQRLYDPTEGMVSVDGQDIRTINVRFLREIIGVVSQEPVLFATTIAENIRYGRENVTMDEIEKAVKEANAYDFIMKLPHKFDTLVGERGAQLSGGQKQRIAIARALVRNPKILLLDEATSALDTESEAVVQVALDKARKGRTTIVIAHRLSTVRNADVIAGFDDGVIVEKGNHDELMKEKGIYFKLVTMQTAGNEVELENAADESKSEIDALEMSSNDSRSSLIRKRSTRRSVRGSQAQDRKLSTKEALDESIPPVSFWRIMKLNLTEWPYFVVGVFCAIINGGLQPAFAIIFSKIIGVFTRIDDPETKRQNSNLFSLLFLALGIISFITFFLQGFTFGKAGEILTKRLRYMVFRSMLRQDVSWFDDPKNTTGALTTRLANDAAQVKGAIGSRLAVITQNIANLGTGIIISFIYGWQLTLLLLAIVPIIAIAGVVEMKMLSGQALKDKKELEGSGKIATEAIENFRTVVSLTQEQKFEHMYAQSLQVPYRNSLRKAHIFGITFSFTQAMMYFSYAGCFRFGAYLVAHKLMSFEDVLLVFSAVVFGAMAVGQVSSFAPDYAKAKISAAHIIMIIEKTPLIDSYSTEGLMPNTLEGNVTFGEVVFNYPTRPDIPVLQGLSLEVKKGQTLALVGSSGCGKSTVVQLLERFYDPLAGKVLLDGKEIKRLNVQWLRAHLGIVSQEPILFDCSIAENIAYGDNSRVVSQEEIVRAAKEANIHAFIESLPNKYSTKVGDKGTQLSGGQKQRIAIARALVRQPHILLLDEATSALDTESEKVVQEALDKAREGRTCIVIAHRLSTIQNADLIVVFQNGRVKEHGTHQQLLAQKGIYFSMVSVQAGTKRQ
T1 sequence (P08183 whole entry): as above

As to `COc1cnc2c(NC(=O)c3cc4cn([C@@]56CC[C@@](C)(C5)OC6)nc4cc3OC(C)C)cnn2c1` (single isomer, unassigned) [Example 135], the “MDR1-MDCK Efflux Ratio; (B-A/A-B)” value in data set [1] is listed as 2.3. Further, the IC50 in data set [2] worked out at 0.6 nM.

Regarding `COCCn1cc2cc(C(=O)Nc3cccc(C(F)F)n3)c(OC)cc2n1` [Example 10, N-(6-(difluoromethyl)pyridin-2-yl)-6-methoxy-2-(2-methoxyethyl)-2H-indazole-5-carboxamide], the efflux ratio at 120 min, 1 μM in data set [3] amounted to 0.9. In addition, the IC50 in data set [4] worked out at 26 nM.

In the case of `Cc1cnc2c(NC(=O)c3cc4cn(C5CCCOC5)nc4nc3OC3CCC3)cnn2c1` (single isomer, unassigned) [Example 132], the “MDR1-MDCK Efflux Ratio; (B-A/A-B)” value in data set [1] amounted to 2.0. Further, in data set [2], the IC50 was found to be 0.1 nM.

Regarding “6-Ethoxy-N-(2-methoxypyridin-3-yl)-2-(1-methyl-2-oxabicyclo[2.1.1]hexan-4-yl)-2H-indazole-5-carboxamide tfifluoroacetate [Example 85]”, the “MDR1-MDCK Efflux Ratio; (B-A/A-B)” value in data set [1] was found to be 0.8. Also, in data set [2], the IC50 turned out to be 0.9 nM.

`COc1cnc2c(NC(=O)c3cc4cn([C@]56CC[C@](C)(C5)OC6)nc4cc3OC(C)C)cnn2c1` (single isomer, unassigned) [Example 136]: in data set [1], the “MDR1-MDCK Efflux Ratio; (B-A/A-B)” value stood at 2.3. For the same molecule, the IC50 in data set [2] was 1.4 nM.

As to `CC12CCC(n3cc4cc(C(=O)Nc5cnn6cccnc56)c(OC5CCC5)cc4n3)(CO1)C2` (single isomer, unassigned) [Example 138], in data set [1], the “MDR1-MDCK Efflux Ratio; (B-A/A-B)” value came out at 1.7. In data set [2], the IC50 was determined as 0.2 nM.

Regarding `Cc1ccn2ncc(NC(=O)c3cc4cn(C5CCCOC5)nc4nc3OC3CCC3)c2n1` (single isomer, unassigned) [Example 134], the “MDR1-MDCK Efflux Ratio; (B-A/A-B)” value in data set [1] amounted to 2.1. The IC50 in data set [2] was determined as 1 nM.

On to `CC(C)Oc1nc2nn(CC3CCOC3)cc2cc1C(=O)Nc1cc(F)cn(C)c1=O` (stereo not drawn) [Example 81, N-(5-fluoro-1-methyl-2-oxo-1,2-dihydroxypyridin-3-yl)-6-isopropxy-2-((tetrahydrofuran-3-yl)methyl)-2H-pyrazolo[3,4-b]pyridine-5-carboxamide], for which the efflux ratio at 120 min, 1 μM in data set [3] amounted to 5.9. The IC50 in data set [2] worked out at 9.9 nM.

Regarding `Cc1cccc(NC(=O)c2cc3cn(C4CCOCC4)nc3cc2OC(C)C)c1F` [Example 68, N-(2-fluoro-3-methylphenyl)-6-isopropoxy-2-(tetrahydro-2H-pyran-4-yl)-2H-indazole-5-carboxamide], the efflux ratio at 120 min, 1 μM in data set [3] was determined as 1.4. In data set [2], the IC50 was found to be 2 nM.

Turning to `CC(C)Oc1nc2nn([C@@H]3CCCOC3)cc2cc1C(=O)Nc1cnn2cccnc12` (single isomer, unassigned) [Example 120], the efflux ratio at 120 min, 1 μM in data set [3] is 0.9. The IC50 in data set [2] came out at 0.5 nM.

Turning to `CC(C)Oc1nc2nn(C[C@@H]3CCOC3)cc2cc1C(=O)Nc1ccn(C(F)F)n1` (single isomer, unassigned) [Example 111], the efflux ratio at 120 min, 1 μM in data set [3] amounted to 2.1. Also, in data set [2], the IC50 was 2.7 nM.

For `CC(C)Oc1cc2nn(C34COC(C)(C3)C4)cc2cc1C(=O)Nc1cnn2cccnc12` [Example 93, 6-Isopropoxy-2-(1-methyl-2-oxabicyclo[2.1.1]hexan-4-yl)-N-(pyrazolo[1,5-a]pyrimidin-3-yl)-2H-indazole-5-carboxamide], the efflux ratio at 120 min, 1 μM in data set [3] turned out to be 1.4. In data set [2], the IC50 is 0.4 nM.

For `CC(C)Oc1cc2nn(C34COC(C)(C3)C4)cc2cc1C(=O)Nc1cnn2cc(Cl)cnc12` [Example 95, N-(6-chloropyrazolo[1,5-a]pyrimidin-3-yl)-6-isopropoxy-2-(1-methyl-2-oxabicyclo[2.1.1]hexan-4-yl)-2H-indazole-5-carboxamide], the efflux ratio at 120 min, 1 μM in data set [3] was determined as 0.9. Besides, in data set [2], the IC50 stood at 0.3 nM.

Take `COc1ncccc1NC(=O)c1cc2cn(CC3CCOC3)nc2nc1OC(C)C` (stereo not drawn) [Example 78, 6-Isopropoxy-N-(2-methoxypyridin-3-yl)-2-((tetrahydrofuran-3-yl)methyl)-2H-pyrazolo[3,4-b]pyridine-5-carboxamide]: the efflux ratio at 120 min, 1 μM in data set [3] came to 1.4. Besides, the IC50 in data set [2] was determined as 1.2 nM.

For the molecule `CC(C)Oc1cc2nn(C3CCOCC3)cc2cc1C(=O)Nc1cccc2ccnn12` [Example 51, 6-Isopropoxy-N-(pyrazolo[1,5-a]pyridin-7-yl)-2-(tetrahydro-2H-pyran-4-yl)-2H-indazole-5-carboxamide], in data set [3], the efflux ratio at 120 min, 1 μM stood at 0.9. In addition, the IC50 in data set [2] came to 1.3 nM.

As to `COCCCn1cc2cc(C(=O)Nc3cccc(C(F)(F)F)n3)c(OC(C)C)nc2n1.Cl` [Example 60, 6-Isopropxy-2-(3-methoxypropyl)-N-(6-(trifluoromethyl)pyridin-2-yl)-2H-pyrazolo[3,4-b]pyridine-5-carboxamide hydrochloride], the efflux ratio at 120 min, 1 μM in data set [3] was determined as 1.5. Besides, the IC50 in data set [2] amounted to 2.2 nM.

For the molecule `CO[C@H]1C[C@H](Oc2cc3nn(C4CCOCC4)cc3cc2C(=O)Nc2cccc(C(F)F)n2)C1.Cl` [Example 50, N-(6-(difluoromethyl)pyridin-2-yl)-6-((1R,3R)-3-methoxycyclobutoxy)-2-(tetrahydro-2H-pyran-4-yl)-2H-indazole-5-carboxamide Hydrochloride], the efflux ratio at 120 min, 1 μM in data set [3] is 1.4. Besides, the half-inhibitory concentration (IC50) in data set [2] is 0.2 nM.

For `CC(C)Oc1cc2nn(C3COC3)cc2cc1C(=O)Nc1cccc(C(F)F)n1` [Example 30, N-(6-(difluoromethyl)pyridin-2-yl)-6-isopropoxy-2-(oxetan-3-yl)-2H-indazole-5-carboxamide], the efflux ratio at 120 min, 1 μM in data set [3] turned out to be 0.6. Besides, in data set [2], the IC50 amounted to 6.2 nM.

As to `CC(C)Oc1cc2nn(C)cc2cc1C(=O)Nc1cccc(C(F)F)n1` [Example 41, N-(6-(difluoromethyl)pyridin-2-yl)-6-isopropoxy-2-methyl-2H-indazole-5-carboxamide], the efflux ratio at 120 min, 1 μM in data set [3] was determined as 0.3. Besides, the IC50 in data set [2] came to 3.2 nM.

Regarding `COc1cc2nn(C[C@@H]3CCOC3)cc2cc1C(=O)Nc1cccc(C(F)F)n1` (single isomer, unassigned) [Example 19], in data set [3], the efflux ratio at 120 min, 1 μM amounted to 1. For the same molecule, the IC50 in data set [2] is 5.4 nM.

With `Cc1cnc2c(NC(=O)c3cc4cn(C5CCCOC5)nc4nc3OC3CCC3)cnn2c1` (single isomer, unassigned) [Example 131], the efflux ratio at 120 min, 1 μM in data set [3] was found to be 2.6. Also, in data set [2], the IC50 stood at 0.2 nM.

Regarding `CC(C)Oc1cc2nn(C3CCOCC3)cc2cc1C(=O)Nc1cnn2cccnc12` [Example 72, 6-Isopropoxy-N-(pyrazolo[1,5-a]pyrimidin-3-yl)-2-(tetrahydro-2H-pyran-4-yl)-2H-indazole-5-carboxamide], in data set [3], the efflux ratio at 120 min, 1 μM was determined as 2.1. In data set [2], the IC50 came out at 0.8 nM.

`CC(C)Oc1cc2nn([C@@]34CC[C@@](C)(C3)OC4)cc2cc1C(=O)Nc1cccc(C(F)F)n1` (single isomer, unassigned) [Example 126]: in data set [3], the efflux ratio at 120 min, 1 μM stood at 0.5. Also, the IC50 in data set [2] was determined as 0.2 nM.

On to `Cc1ccn2ncc(NC(=O)c3cc4cn(C5CCCOC5)nc4nc3OC3CCC3)c2n1` (single isomer, unassigned) [Example 133], for which the efflux ratio at 120 min, 1 μM in data set [3] was determined as 2.6. Moreover, in data set [2], the half-maximal inhibitory concentration (IC50) worked out at 1.7 nM.
